How the values were obtained:
[1] = target: T1, recombinant mouse TRPC3b channels (Mus musculus, UniProt Q9QZC1, R524G); test: Indo-1 ratiometric Ca2+ imaging of CCh-activated Ca2+ entry, HEK293 cells expressing TRPC3b; type: cell-based; conditions: genistein 200 μM pre-incubation, n=5, without genistein 182.7±20.8 nM
T1 construct: Full length mouse TRPC3 transcripts were obtained by PCR; expressed in transfected cells; host or cells: HEK293 cells, stably transfected (pIRES-DsRed2 vector)
T1 sequence (Q9QZC1 75-910 R524G limits assumed): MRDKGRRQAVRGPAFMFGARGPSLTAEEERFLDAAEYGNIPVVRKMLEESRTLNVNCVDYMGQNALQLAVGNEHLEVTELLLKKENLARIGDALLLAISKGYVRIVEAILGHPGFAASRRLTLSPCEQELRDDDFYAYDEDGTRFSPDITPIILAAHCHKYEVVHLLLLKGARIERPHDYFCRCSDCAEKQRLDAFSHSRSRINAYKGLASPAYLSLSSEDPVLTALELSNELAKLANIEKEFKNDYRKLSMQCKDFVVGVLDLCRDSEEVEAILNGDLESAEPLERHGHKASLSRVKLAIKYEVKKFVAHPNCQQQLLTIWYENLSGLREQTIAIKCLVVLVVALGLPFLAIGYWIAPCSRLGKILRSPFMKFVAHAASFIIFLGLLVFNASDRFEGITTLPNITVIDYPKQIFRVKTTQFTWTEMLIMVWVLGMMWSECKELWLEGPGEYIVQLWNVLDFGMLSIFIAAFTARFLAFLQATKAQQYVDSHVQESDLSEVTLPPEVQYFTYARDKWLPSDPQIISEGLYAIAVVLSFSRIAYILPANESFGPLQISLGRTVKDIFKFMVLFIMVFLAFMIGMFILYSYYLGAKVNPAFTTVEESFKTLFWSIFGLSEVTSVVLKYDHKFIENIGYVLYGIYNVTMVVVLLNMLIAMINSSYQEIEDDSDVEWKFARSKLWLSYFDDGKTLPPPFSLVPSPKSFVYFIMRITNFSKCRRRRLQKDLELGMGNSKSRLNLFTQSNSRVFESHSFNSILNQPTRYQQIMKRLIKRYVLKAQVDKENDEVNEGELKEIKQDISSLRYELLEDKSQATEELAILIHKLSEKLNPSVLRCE
Experimental: The TRPC3-mediated Ca^2+ entry through two distinct activation pathways was assessed by microfluorometric Ca^2+ imaging: i) Ca^2+ entry via the M3 receptor-PLCB-DAG pathway endogenous to HEK293 cells, using Indo-1 as a Ca^2+ indicator; and ii) Ca^2+ entry via mGluR1-PLCB-DAG through co-expression of the mGluR1, using Fluo-4 as a Ca^2+ indicator.
Cells were grown in DMEM media on 18 mm circular coverslips coated with poly-D-lysine (25 μg/ml) and collagen (25 μg/ml) at 1:1 ratio. The cells were washed with HPSS. The coverslips were then incubated with HPSS and 0.1% pluronic acid, along with either 1 μM Indo-1AM or Fluo-4AM Ca^2+ indicator (Invitrogen, U.S.A.) for an hour prior to the experiment. The cells were then placed into HPSS with 5 μM GdCl3 to block endogenous Ca^2+ entry (added to all superfusions). The M3 AChR-mediated TRPC3 activation was achieved by bath application of carbachol. The mGluR1-mediated TRPC3 activation was achieved by bath application of DHPG.
For Indo-1 experiments, the cells were mounted on a Nikon TMD inverted microscope fitted with an Indo-1 filter set (Nikon Indo-1 filter cube, 485 nm/DM455 nm/405 nm) and illuminated with a mercury lamp. Cells were excited at 350 nm, with dual emission of the field was detected at 410 nm and 480 nm using two photomultiplier tubes, and the ratioed emission was determined in real-time using in-house software. […]

[2] = test system: mouse cerebellar brain slices; test: Oxygen glucose deprivation (OGD) in organotypic cerebellar brain slices, propidium iodide staining; type: cell-based; conditions: genistein 200 μM
Experimental: TRPC3c-mediated brain injury arising from transient oxygen glucose deprivation (OGD) was evaluated in organotypic cerebellar brain slices using the TRPC channel blocker Genistein. The brain slices (400 μm) were prepared as described in Example 5. Mice ([…] strain, 6-8 weeks old) were anaesthetized with pentobarbital and decapitated. The brain was removed and submerged in ice cold modified artificial cerebral spinal fluid (ACSF) solution containing 4 mM KCl, 5 mM MgCl2, 1 mM CaCl2, 26 mM NaHCO3, 10 mM glucose, 246 mM sucrose equilibrated with 95% CO2, 5% O2. Slices were cut with a VT1200 vibratome (Leica, Germany) and were allowed to recover in culture medium (75% Minimum Essential Medium (MEM), 25% heat-inactivated horse serum, 25 mM HEPES, 1 mM glutamine, 27.7 mM glucose) for at least 1 h in a tissue culture incubator (37° C., 5% CO2 in air). Hurtado de Mendoza et al. (2011) J Vis Exp. (51). (pii):2564).
For OGD-induced neuronal loss, the brain slices were placed in an anaerobic chamber (Coy Laboratory Products, USA; 100% N2) in OGD medium (75% MEM, 25% Hanks Buffered Salt Solution, 1 mM glutamine) Radley et a. (2012). Neurosci Lett. 506 (1):131-5). Controls included slices placed directly into culture medium in a tissue culture incubator (37° C., 5% CO2 in air). Slices were exposed to OGD for 0, 15 and 30 minutes, with or without 200 μM genistein (n=2 for each condition). […]

O=c1c(-c2ccc(O)cc2)coc2cc(O)cc(O)c12 [genistein, 4′, 5,7-trihydroxyisoflavone]
peak [Ca2+] on return of extracellular Ca2+ (CCh-activated Ca2+ entry) [1]: 86.7 ± 8.7 nM | propidium iodide fluorescence in granule cell layer and molecular layer after OGD [2]: reduced propidium iodide fluorescence | neuronal loss and oedema in the Purkinje cell layer after OGD ([2]; 15 mins and 30 mins OGD, n=2 slices per condition): provided protection from the neuronal loss and oedema in the PCL

Source: patent publication US20170202932A1, “METHODS FOR INHIBITING NEURON APOPTOSIS AND NECROSIS” (NEWSOUTH INNOVATIONS PTY LIMITED, priority 2012, published 2017)
